According to US20110046040A1, “Microorganism-inactivating agent” (CHISSO CORPORATION, priority 2009, published 2011):

Legend:
Type in all cases: cell-based
[1] = tested on: Salmonella enterica; experiment: inactivation with further addition of the microorganism after predetermined periods; conditions: ε-poly-L-lysine 5 ppm
Protocol: (§1) Each test microbe was inoculated to nutrient broth and cultured with shaking at the optimum temperature of the test microbe until the late logarithmic phase. From the microbe culture, the microbe was collected, and the collected microbe was washed with 1.5 mL of physiological saline 2 to 3 times (centrifugation at 13000 rpm for 1 minute) and suspended in 1.5 mL of physiological saline. From the suspension, a 1 mL aliquot was recovered, and this was added to 9 mL of sterile water, followed by sufficient stirring of the resulting suspension (this was used as 10^−1 dilution). From the 10^−1 dilution, 10^−2 to 10^−8 dilutions were sequentially prepared. Each dilution was smeared on a film medium (Sanita-kun; for E. coli and coliform bacteria, for Staphylococcus aureus, for Salmonella, for aerobic bacteria or for fungi: Chisso Corporation) in an amount of 1 mL, followed by culturing at the optimum temperature of the test microbe for 24 to 72 hours and measurement of the number of cells on the film medium.
(§2) To a sterilized beaker, 500 mL of sterilized water was placed, and 0.20 mL of microbe culture of 10^6 to 10^10 cells/mL was inoculated thereto, to attain an initial cell number of 10^3 to 10^7 cells/mL. Unless otherwise specified, the pH was 6 to 8. After stirring the suspension gently for 5 minutes, PGα21Ca (Nippon Poly-Glu Co., Ltd.) and/or a microbiostatic agent or microbicide was/were added thereto such that a predetermined final concentration(s) was/were attained. After gentle stirring at room temperature for 10 to 15 minutes, the suspension was left to stand for a predetermined length of time. The supernatant was collected and diluted appropriately in an antimicrobial agent-inactivating medium (BHI medium or the like), and 1 mL each of the resulting diluent was smeared on a film medium. Culturing was carried out at the optimum temperature of each test microbe for 24 to 72 hours and the number of cells (cells/mL) on the film medium was measured.
(§3) (3) The inactivation effect of ε-poly-L-lysine, which is a microbicide related to the microorganism-inactivating agent of the present invention, upon its single application to water containing Escherichia coli, Salmonella or Staphylococcus, followed by further addition of the respective microorganisms after predetermined periods of time was studied. The addition of the microorganisms was carried out at 24, 48, 72 and 144 hours after sampling. ε-poly-L-lysine was added at a concentration of 5 ppm. […]

[2] = tested on: Staphylococcus aureus; experiment: as above; conditions: ε-poly-L-lysine 5 ppm
Protocol: as §1, §2, §3

[3] = tested on: Escherichia coli; experiment: as above; conditions: ε-poly-L-lysine 5 ppm
Protocol: as §1, §2, §3

[4] = tested on: Bacillus subtilis; experiment: inactivation of microorganisms in water, number of cells in supernatant
Protocol: as §1, §2

[5] = tested on: Staphylococcus aureus; experiment: as above
Protocol: as §1, §2

[6] = tested on: Bacillus cereus; experiment: as above
Protocol: as §1, §2

[7] = tested on: Salmonella choleraesuis; experiment: as above
Protocol: as §1, §2

[8] = tested on: Escherichia coli; experiment: as above
Protocol: as §1, §2

[9] = tested on: Listeria monocytogenes; experiment: as above
Protocol: as §1, §2

[10] = tested on: Pseudomonas aeruginosa; experiment: as above
Protocol: as §1, §2

[11] = tested on: Klebsiella pneumoniae; experiment: as above
Protocol: as §1, §2

[12] = further addition of microbe at 24 h (3.2 × 10^7)
[13] = further addition of microbe at 48 h (3.6 × 10^6)
[14] = further addition of microbe at 72 h (3.0 × 10^6)
[15] = further addition of microbe at 144 h (3.1 × 10^6)
[16] = further addition of microbe at 24 h (2.2 × 10^7)
[17] = further addition of microbe at 48 h (1.4 × 10^6)
[18] = further addition of microbe at 72 h (6.1 × 10^6)
[19] = further addition of microbe at 144 h (7.9 × 10^6)
[20] = further addition of microbe at 24 h (1.3 × 10^8)
[21] = further addition of microbe at 48 h (5.0 × 10^6)
[22] = further addition of microbe at 72 h (6.6 × 10^6)
[23] = further addition of microbe at 144 h (1.2 × 10^7)
[24] = ε-poly-L-lysine 10 ppm, 0 minute later 2.9 × 10^4
[25] = ε-poly-L-lysine 5 ppm, initial 1.2 × 10^7
[26] = ε-poly-L-lysine 10 ppm, 0 minute later 2.3 × 10^4
[27] = ε-poly-L-lysine 10 ppm, initial 1.2 × 10^7
[28] = ε-poly-L-lysine 10 ppm, 0 minute later 7.5 × 10^4
[29] = ε-poly-L-lysine 10 ppm, 0 minute later 3.2 × 10^5
[30] = ε-poly-L-lysine 5 ppm, initial 3.2 × 10^7
[31] = ε-poly-L-lysine 10 ppm, 0 minute later 2.5 × 10^6
[32] = ε-poly-L-lysine 10 ppm, initial 3.2 × 10^7
[33] = ε-poly-L-lysine 10 ppm, 0 minute later 8.1 × 10^4
[34] = ε-poly-L-lysine 10 ppm, 0 minute later 6.2 × 10^5
[35] = ε-poly-L-lysine 10 ppm, 0 minute later 3.3 × 10^5

ε-poly-L-lysine
number of cells, elapsed time 26 hours [1, 12]: <10 cells/mL
number of cells, elapsed time 28 hours [1, 12]: <10 cells/mL
number of cells, elapsed time 48 hours [1, 12]: <10 cells/mL
number of cells, elapsed time 50 hours [1, 13]: <10 cells/mL
number of cells, elapsed time 52 hours [1, 13]: <10 cells/mL
number of cells, elapsed time 72 hours [1, 13]: <10 cells/mL
number of cells, elapsed time 74 hours [1, 14]: <10 cells/mL
number of cells, elapsed time 76 hours [1, 14]: <10 cells/mL
number of cells, elapsed time 96 hours [1, 14]: <10 cells/mL
number of cells, elapsed time 144 hours [1, 14]: <10 cells/mL
number of cells, elapsed time 146 hours [1, 15]: <10 cells/mL
number of cells, elapsed time 148 hours [1, 15]: <10 cells/mL
number of cells, elapsed time 168 hours [1, 15]: <10 cells/mL
number of cells, elapsed time 2 hours ([1]; initial 3.0 × 10^6): <10 cells/mL
number of cells, elapsed time 4 hours ([1]; initial 3.0 × 10^6): <10 cells/mL
number of cells, elapsed time 24 hours ([1]; initial 3.0 × 10^6): <10 cells/mL
number of cells, elapsed time 26 hours [2, 16]: 2.2 × 10^6 cells/mL
number of cells, elapsed time 28 hours [2, 16]: 2.1 × 10^5 cells/mL
number of cells, elapsed time 48 hours [2, 16]: <10 cells/mL
number of cells, elapsed time 50 hours [2, 17]: 2.5 × 10^4 cells/mL
number of cells, elapsed time 52 hours [2, 17]: 1.2 × 10^4 cells/mL
number of cells, elapsed time 72 hours [2, 17]: <10 cells/mL
number of cells, elapsed time 74 hours [2, 18]: 1.7 × 10^3 cells/mL
number of cells, elapsed time 76 hours [2, 18]: 20 cells/mL
number of cells, elapsed time 96 hours [2, 18]: <10 cells/mL
number of cells, elapsed time 144 hours [2, 18]: <10 cells/mL
number of cells, elapsed time 146 hours [2, 19]: 1.0 × 10^3 cells/mL
number of cells, elapsed time 148 hours [2, 19]: 90 cells/mL
number of cells, elapsed time 168 hours [2, 19]: <10 cells/mL
number of cells, elapsed time 2 hours ([2]; initial 2.0 × 10^6): <10 cells/mL
number of cells, elapsed time 4 hours ([2]; initial 2.0 × 10^6): <10 cells/mL
number of cells, elapsed time 24 hours ([2]; initial 2.0 × 10^6): <10 cells/mL
number of cells, elapsed time 26 hours [3, 20]: <10 cells/mL
number of cells, elapsed time 28 hours [3, 20]: <10 cells/mL
number of cells, elapsed time 48 hours [3, 20]: <10 cells/mL
number of cells, elapsed time 50 hours [3, 21]: <10 cells/mL
number of cells, elapsed time 52 hours [3, 21]: <10 cells/mL
number of cells, elapsed time 72 hours [3, 21]: <10 cells/mL
number of cells, elapsed time 74 hours [3, 22]: <10 cells/mL
number of cells, elapsed time 76 hours [3, 22]: <10 cells/mL
number of cells, elapsed time 96 hours [3, 22]: <10 cells/mL
number of cells, elapsed time 144 hours [3, 22]: <10 cells/mL
number of cells, elapsed time 146 hours [3, 23]: <10 cells/mL
number of cells, elapsed time 148 hours [3, 23]: <10 cells/mL
number of cells, elapsed time 168 hours [3, 23]: <10 cells/mL
number of cells, elapsed time 2 hours ([3]; initial 1.0 × 10^6): <10 cells/mL
number of cells, elapsed time 4 hours ([3]; initial 1.0 × 10^6): <10 cells/mL
number of cells, elapsed time 24 hours ([3]; initial 1.0 × 10^6): <10 cells/mL
number of cells 2 hours later ([4]; 10 ppm, pH 8, initial 6.0 × 10^4): <10 cells/mL
number of cells 5 minutes later [4, 24]: 4 × 10^3 cells/mL
number of cells 15 minutes later [4, 24]: 30 cells/mL
number of cells 60 minutes later [4, 24]: <10 cells/mL
number of cells 120 minutes later [4, 24]: <10 cells/mL
number of cells 2 hours later ([5]; 10 ppm, pH 8, initial 4.3 × 10^4): <10 cells/mL
number of cells 0.5 hour later [5, 25]: 4.0 × 10^4 cells/mL
number of cells 1 hour later [5, 25]: 2.2 × 10^4 cells/mL
number of cells 2 hours later [5, 25]: 4.2 × 10^3 cells/mL
number of cells 5 minutes later [5, 26]: 8.1 × 10^3 cells/mL
number of cells 15 minutes later [5, 26]: 2.55 × 10^3 cells/mL
number of cells 60 minutes later [5, 26]: 2 × 10^3 cells/mL
number of cells 120 minutes later [5, 26]: 440 cells/mL
number of cells 0.5 hour later [5, 27]: 5.0 × 10^4 cells/mL
number of cells 1 hour later [5, 27]: 7.0 × 10^3 cells/mL
number of cells 2 hours later [5, 27]: 4.8 × 10^3 cells/mL
number of cells 2 hours later ([6]; 10 ppm, pH 8, initial 9.5 × 10^4): 290 cells/mL
number of cells 5 minutes later [6, 28]: 140 cells/mL
number of cells 15 minutes later [6, 28]: 110 cells/mL
number of cells 60 minutes later [6, 28]: 80 cells/mL
number of cells 120 minutes later [6, 28]: <10 cells/mL
number of cells 2 hours later ([7]; 10 ppm, pH 8, initial 4.7 × 10^4): <10 cells/mL
number of cells 0.5 hour later [7, 25]: 50 cells/mL
number of cells 1 hour later [7, 25]: 20 cells/mL
number of cells 2 hours later [7, 25]: <10 cells/mL
number of cells 5 minutes later [7, 29]: 480 cells/mL
number of cells 15 minutes later [7, 29]: 1.4 × 10^3 cells/mL
number of cells 60 minutes later [7, 29]: 120 cells/mL
number of cells 120 minutes later [7, 29]: <10 cells/mL
number of cells 0.5 hour later [7, 27]: <10 cells/mL
number of cells 1 hour later [7, 27]: <10 cells/mL
number of cells 2 hours later [7, 27]: <10 cells/mL
number of cells 2 hours later ([8]; 10 ppm, pH 8, initial 5.8 × 10^4): <10 cells/mL
number of cells 0.5 hour later [8, 30]: 3.2 × 10^3 cells/mL
number of cells 1 hour later [8, 30]: <10 cells/mL
number of cells 2 hours later [8, 30]: <10 cells/mL
number of cells 5 minutes later [8, 31]: 1.32 × 10^4 cells/mL
number of cells 15 minutes later [8, 31]: 10 cells/mL
number of cells 60 minutes later [8, 31]: <10 cells/mL
number of cells 120 minutes later [8, 31]: <10 cells/mL
number of cells 0.5 hour later [8, 32]: 300 cells/mL
number of cells 1 hour later [8, 32]: <10 cells/mL
number of cells 2 hours later [8, 32]: <10 cells/mL
number of cells 2 hours later ([9]; 10 ppm, pH 8, initial 2.0 × 10^4): <10 cells/mL
number of cells 5 minutes later [9, 33]: 780 cells/mL
number of cells 15 minutes later [9, 33]: 40 cells/mL
number of cells 60 minutes later [9, 33]: 20 cells/mL
number of cells 120 minutes later [9, 33]: <10 cells/mL
number of cells 2 hours later ([10]; 10 ppm, pH 8, initial 2.0 × 10^5): <10 cells/mL
number of cells 5 minutes later [10, 34]: 2.16 × 10^4 cells/mL
number of cells 15 minutes later [10, 34]: 240 cells/mL
number of cells 60 minutes later [10, 34]: 20 cells/mL
number of cells 120 minutes later [10, 34]: <10 cells/mL
number of cells 2 hours later ([11]; 10 ppm, pH 8, initial 1.3 × 10^5): <10 cells/mL
number of cells 5 minutes later [11, 35]: 1.8 × 10^4 cells/mL
number of cells 15 minutes later [11, 35]: 1.87 × 10^3 cells/mL
number of cells 60 minutes later [11, 35]: 10 cells/mL
number of cells 120 minutes later [11, 35]: <10 cells/mL
